Our source for the EC50 and Emax values is patent US10988523B2, “Modified lipidated Relaxin B chain peptides and their therapeutic use” (Sanofi, priority 2018, dated 2021).

*1 amine or outer side, *2 acyl side, *3 side chain or, on linkers, in order; H or OH if unused. Where a SMILES comes first, the peptide text is derived from it. Side-chain parts run from the residue outwards. [ ]: non-standard residue; d: D form. The star is where a group is joined. X18 = CCCCCCCCCCCCCCCC(=O)N[C@@H](CCC(=O)N[C@@H](CCC(=O)N[C@@H](CCC(=O)NCCCC[C@H](NC(=O)CCC(=O)NCCCOCCOCCOCCCNC(=O)CCC(=O)NCCCOCCOCCOCCCNC(=O)CCC(=O)NCCCOCCOCCOCCCN*)C(N)=O)C(=O)O)C(=O)O)C(=O)O; X14 = CCCCCCCCCCCCCCC(=O)N[C@@H](CCC(=O)N[C@@H](CCC(=O)N[C@@H](CCC(=O)NCCCC[C@H](NC(=O)CCC(=O)NCCCOCCOCCOCCCNC(=O)CCC(=O)NCCCOCCOCCOCCCNC(=O)CCC(=O)NCCCOCCOCCOCCCN*)C(N)=O)C(=O)O)C(=O)O)C(=O)O; X17 = CCCCCCCCCCCCCCC(=O)N[C@@H](CCC(=O)N[C@@H](CCC(=O)N[C@@H](CCC(=O)NCCCOCCOCCOCCCNC(=O)CCC(=O)NCCCOCCOCCOCCCNC(=O)CCC(=O)NCCCOCCOCCOCCCN*)C(=O)O)C(=O)O)C(=O)O; X8 = CCCCCCCCCCCCCCCC(=O)N[C@@H](CCC(=O)N[C@@H](CCC(=O)N[C@@H](CCC(=O)NCCCOCCOCCOCCCNC(=O)CCC(=O)NCCCOCCOCCOCCCNC(=O)CCC(=O)NCCCOCCOCCOCCCN*)C(=O)O)C(=O)O)C(=O)O; γGlu = O=C(O)[C@H](CCC(=O)[*:2])N[*:1]; Pentadecanoyl = CCCCCCCCCCCCCCC(=O)*; Palmitoyl = CCCCCCCCCCCCCCCC(=O)*; Myristoyl = CCCCCCCCCCCCCC(=O)*; Suc = O=C(CCC(=O)[*:2])[*:1]; αMeK = C[C@](N)(CCCCN)C(=O)O; Nle = CCCC[C@H](N)C(=O)O; AEEA = NCCOCCOCC(=O)O; Aib = CC(C)(N)C(=O)O

The test addresses T1, RXFP1 (Homo sapiens, UniProt Q9HBX9).
T1 construct: OVCAR5 cells expressing endogenous RXFP1; endogenous in cells; host or cells: OVCAR5 cells
T1 sequence (Q9HBX9 1-757): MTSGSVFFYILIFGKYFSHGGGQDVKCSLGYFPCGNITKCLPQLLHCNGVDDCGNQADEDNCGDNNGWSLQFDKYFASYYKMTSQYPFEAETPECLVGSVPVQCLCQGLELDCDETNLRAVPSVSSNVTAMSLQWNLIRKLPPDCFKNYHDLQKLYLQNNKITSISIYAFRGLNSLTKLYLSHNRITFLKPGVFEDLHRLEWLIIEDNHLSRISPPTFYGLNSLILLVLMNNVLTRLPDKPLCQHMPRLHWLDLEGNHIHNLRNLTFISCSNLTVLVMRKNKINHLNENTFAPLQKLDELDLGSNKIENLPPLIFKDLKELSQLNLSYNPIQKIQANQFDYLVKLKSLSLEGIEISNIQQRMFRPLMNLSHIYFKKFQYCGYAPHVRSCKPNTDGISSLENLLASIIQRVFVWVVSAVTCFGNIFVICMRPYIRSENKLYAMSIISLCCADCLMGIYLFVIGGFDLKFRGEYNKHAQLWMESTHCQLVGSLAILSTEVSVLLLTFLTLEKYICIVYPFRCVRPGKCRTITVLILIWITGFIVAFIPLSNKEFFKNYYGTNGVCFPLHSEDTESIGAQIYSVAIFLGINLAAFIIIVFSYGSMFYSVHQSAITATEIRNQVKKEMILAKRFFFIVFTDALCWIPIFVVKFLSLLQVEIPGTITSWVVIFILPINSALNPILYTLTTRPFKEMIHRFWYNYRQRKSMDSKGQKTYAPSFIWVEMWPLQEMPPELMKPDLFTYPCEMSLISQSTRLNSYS
The test is described as follows: OVCAR5 cAMP assay (HTRF), RXFP1 agonist activity. It is filed as cell-based. Conditions: for EC50: OVCAR5 cells, cAMP HTRF, read-out: EC50 (nM), OVCAR 5 cells (cAMP); for Emax: OVCAR-5, maximal cAMP relative to H2-relaxin maximum (100%), read-out: EMax, OVCAR 5 cells (cAMP). Put shortly: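 cAMP accumulation readout: after 1 mM IBMX for 40 min, endogenous-RXFP1 OVCAR5 cells got rising peptide concentrations without FCS, 30 min, 37° C, then lysis with HTRF cAMP reagents. Nonlinear regression gave EC50; Emax expressed relative to H2-relaxin maximum, same occasion.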

On to `CCCCCCCCCCCCCCCC(=O)N[C@@H](CCC(=O)N[C@@H](CCC(=O)N[C@@H](CCC(=O)NCCCOCCOCCOCCCNC(=O)CCC(=O)NCCCOCCOCCOCCCNC(=O)CCC(=O)NCCCOCCOCCOCCCNC(=O)CCC(=O)NCCCC[C@H](NC(=O)[C@H](CCCCNC(C)=O)NC(=O)[C@H](C)NC(=O)[C@H](CCCNC(=N)N)NC(=O)[C@](C)(CCCCN)NC(=O)[C@H](CO)NC(=O)[C@H](Cc1ccccc1)NC(=O)[C@@H](NC(=O)[C@H](CO)NC(=O)[C@H](CCCC)NC(=O)CNC(=O)[C@H](CCC(=O)O)NC(=O)C(C)(C)NC(=O)C(C)(C)NC(=O)[C@@H](NC(=O)[C@H](CCCCNC(C)=O)NC(=O)[C@H](C)NC(=O)[C@H](CCCNC(=N)N)NC(=O)[C@@H](NC(=O)[C@H](CCCCN)NC(=O)[C@H](CCC(=O)O)NC(=O)[C@H](CCCNC(=N)N)NC(=O)CNC(=O)[C@H](CCC(=O)O)NC(=O)[C@H](CC(C)C)NC(C)=O)C(C)C)[C@@H](C)CC)[C@@H](C)O)C(N)=O)C(=O)O)C(=O)O)C(=O)O` [compound 183] (Ac-LEGREKVRAK(Ac)I[Aib][Aib]EG[Nle]STFS[αMeK]RAK(Ac)K([Suc-X8])-NH2), for which the EC50 was 0.08 nM and the Emax came out at 94%. On the same counts, the results for `CCCCCCCCCCCCCCCC(=O)N[C@@H](CCC(=O)N[C@@H](CCC(=O)NCCCC[C@H](NC(=O)CC[C@H](NC(=O)CC[C@H](NC(=O)COCCOCCNC(=O)COCCOCCNC(=O)COCCOCCNC(=O)COCCOCCNC(=O)[C@H](CCCCNC(C)=O)NC(=O)[C@H](C)NC(=O)[C@H](CCCNC(=N)N)NC(=O)[C@](C)(CCCCN)NC(=O)[C@H](CO)NC(=O)[C@H](Cc1ccccc1)NC(=O)[C@@H](NC(=O)[C@H](CO)NC(=O)[C@H](CCC(N)=O)NC(=O)CNC(=O)[C@H](CCC(=O)O)NC(=O)C(C)(C)NC(=O)C(C)(C)NC(=O)[C@@H](NC(=O)[C@H](CCCCNC(C)=O)NC(=O)[C@H](C)NC(=O)[C@H](CCCNC(=N)N)NC(=O)[C@@H](NC(=O)[C@H](CCCCN)NC(=O)[C@H](CCC(=O)O)NC(=O)[C@H](CCCNC(=N)N)NC(=O)CNC(=O)[C@H](CCC(=O)O)NC(=O)[C@H](CC(C)C)NC(C)=O)C(C)C)[C@@H](C)CC)[C@@H](C)O)C(=O)O)C(=O)O)C(N)=O)C(=O)O)C(=O)O` [compound 185] (Ac-LEGREKVRAK(Ac)I[Aib][Aib]EGQSTFS[αMeK]RAK(Ac)[AEEA][AEEA][AEEA][AEEA][γGlu][γGlu]K([γGlu-γGlu-Palmitoyl])-NH2) are 0.05 nM and 100%. The matching figures for `CCCCCCCCCCCCCCC(=O)N[C@@H](CCC(=O)N[C@@H](CCC(=O)NCCCC[C@H](NC(=O)CC[C@H](NC(=O)CC[C@H](NC(=O)COCCOCCNC(=O)COCCOCCNC(=O)COCCOCCNC(=O)COCCOCCNC(=O)[C@H](CCCCNC(C)=O)NC(=O)[C@H](C)NC(=O)[C@H](CCCNC(=N)N)NC(=O)[C@](C)(CCCCN)NC(=O)[C@H](CO)NC(=O)[C@H](Cc1ccccc1)NC(=O)[C@@H](NC(=O)[C@H](CO)NC(=O)[C@H](CCC(N)=O)NC(=O)CNC(=O)[C@H](CCC(=O)O)NC(=O)C(C)(C)NC(=O)C(C)(C)NC(=O)[C@@H](NC(=O)[C@H](CCCCNC(C)=O)NC(=O)[C@H](C)NC(=O)[C@H](CCCNC(=N)N)NC(=O)[C@@H](NC(=O)[C@H](CCCCN)NC(=O)[C@H](CCC(=O)O)NC(=O)[C@H](CCCNC(=N)N)NC(=O)CNC(=O)[C@H](CCC(=O)O)NC(=O)[C@H](CC(C)C)NC(C)=O)C(C)C)[C@@H](C)CC)[C@@H](C)O)C(=O)O)C(=O)O)C(N)=O)C(=O)O)C(=O)O` [compound 186] (Ac-LEGREKVRAK(Ac)I[Aib][Aib]EGQSTFS[αMeK]RAK(Ac)[AEEA][AEEA][AEEA][AEEA][γGlu][γGlu]K([γGlu-γGlu-Pentadecanoyl])-NH2): 0.18 nM and 100%.

`CCCCCCCCCCCCCCCC(=O)N[C@@H](CCC(=O)N[C@@H](CCC(=O)N[C@@H](CCC(=O)NCCCC[C@H](NC(=O)CCC(=O)NCCCOCCOCCOCCCNC(=O)CCC(=O)NCCCOCCOCCOCCCNC(=O)CCC(=O)NCCCOCCOCCOCCCNC(=O)[C@H](CCCCNC(C)=O)NC(=O)[C@H](C)NC(=O)[C@H](CCCNC(=N)N)NC(=O)[C@](C)(CCCCN)NC(=O)[C@H](CO)NC(=O)[C@H](Cc1ccccc1)NC(=O)[C@@H](NC(=O)[C@H](CO)NC(=O)[C@H](CCCC)NC(=O)CNC(=O)[C@H](CCC(=O)O)NC(=O)C(C)(C)NC(=O)C(C)(C)NC(=O)[C@@H](NC(=O)[C@H](CCCCNC(C)=O)NC(=O)[C@H](C)NC(=O)[C@H](CCCNC(=N)N)NC(=O)[C@@H](NC(=O)[C@H](CCCCN)NC(=O)[C@H](CCC(=O)O)NC(=O)[C@H](CCCNC(=N)N)NC(=O)CNC(=O)[C@H](CCC(=O)O)NC(=O)[C@H](CC(C)C)NC(C)=O)C(C)C)[C@@H](C)CC)[C@@H](C)O)C(N)=O)C(=O)O)C(=O)O)C(=O)O` [compound 187] (Ac-LEGREKVRAK(Ac)I[Aib][Aib]EG[Nle]STFS[αMeK]RAK(Ac)-X18): the Emax came to 100%. With `CCCCCCCCCCCCCCC(=O)N[C@@H](CCC(=O)N[C@@H](CCC(=O)N[C@@H](CCC(=O)NCCCC[C@H](NC(=O)CCC(=O)NCCCOCCOCCOCCCNC(=O)CCC(=O)NCCCOCCOCCOCCCNC(=O)CCC(=O)NCCCOCCOCCOCCCNC(=O)[C@H](CCCCNC(C)=O)NC(=O)[C@H](C)NC(=O)[C@H](CCCNC(=N)N)NC(=O)[C@](C)(CCCCN)NC(=O)[C@H](CO)NC(=O)[C@H](Cc1ccccc1)NC(=O)[C@@H](NC(=O)[C@H](CO)NC(=O)[C@H](CCCC)NC(=O)CNC(=O)[C@H](CCC(=O)O)NC(=O)C(C)(C)NC(=O)C(C)(C)NC(=O)[C@@H](NC(=O)[C@H](CCCCNC(C)=O)NC(=O)[C@H](C)NC(=O)[C@H](CCCNC(=N)N)NC(=O)[C@@H](NC(=O)[C@H](CCCCN)NC(=O)[C@H](CCC(=O)O)NC(=O)[C@H](CCCNC(=N)N)NC(=O)CNC(=O)[C@H](CCC(=O)O)NC(=O)[C@H](CC(C)C)NC(C)=O)C(C)C)[C@@H](C)CC)[C@@H](C)O)C(N)=O)C(=O)O)C(=O)O)C(=O)O` [compound 188] (Ac-LEGREKVRAK(Ac)I[Aib][Aib]EG[Nle]STFS[αMeK]RAK(Ac)-X14), the Emax was found to be 100%.

On to `CCCCCCCCCCCCCCC(=O)N[C@@H](CCC(=O)N[C@@H](CCC(=O)N[C@@H](CCC(=O)NCCCOCCOCCOCCCNC(=O)CCC(=O)NCCCOCCOCCOCCCNC(=O)CCC(=O)NCCCOCCOCCOCCCNC(=O)CCC(=O)NCCCC[C@H](NC(=O)[C@H](CCCCNC(C)=O)NC(=O)[C@H](C)NC(=O)[C@H](CCCNC(=N)N)NC(=O)[C@](C)(CCCCN)NC(=O)[C@H](CO)NC(=O)[C@H](Cc1ccccc1)NC(=O)[C@@H](NC(=O)[C@H](CO)NC(=O)[C@H](CCC(N)=O)NC(=O)CNC(=O)[C@H](CCC(=O)O)NC(=O)C(C)(C)NC(=O)C(C)(C)NC(=O)[C@@H](NC(=O)[C@H](CCCCNC(C)=O)NC(=O)[C@H](C)NC(=O)[C@H](CCCNC(=N)N)NC(=O)[C@@H](NC(=O)[C@H](CCCCN)NC(=O)[C@H](CCC(=O)O)NC(=O)[C@H](CCCNC(=N)N)NC(=O)CNC(=O)[C@H](CCC(=O)O)NC(=O)[C@H](CC(C)C)NC(C)=O)C(C)C)[C@@H](C)CC)[C@@H](C)O)C(N)=O)C(=O)O)C(=O)O)C(=O)O` [compound 189] (Ac-LEGREKVRAK(Ac)I[Aib][Aib]EGQSTFS[αMeK]RAK(Ac)K([Suc-X17])-NH2), for which the Emax came to 100%. `CCCCCCCCCCCCCC(=O)N[C@@H](CCC(=O)N[C@@H](CCC(=O)N[C@@H](CCC(=O)N[C@@H](CCC(=O)NCCCC[C@H](NC(=O)COCCOCCNC(=O)COCCOCCNC(=O)COCCOCCNC(=O)COCCOCCNC(=O)[C@H](CCCCNC(C)=O)NC(=O)[C@H](C)NC(=O)[C@H](CCCNC(=N)N)NC(=O)[C@](C)(CCCCN)NC(=O)[C@H](CO)NC(=O)[C@H](Cc1ccccc1)NC(=O)[C@@H](NC(=O)[C@H](CO)NC(=O)[C@H](CCC(N)=O)NC(=O)CNC(=O)[C@H](CCC(=O)O)NC(=O)C(C)(C)NC(=O)C(C)(C)NC(=O)[C@@H](NC(=O)[C@H](CCCCNC(C)=O)NC(=O)[C@H](C)NC(=O)[C@H](CCCNC(=N)N)NC(=O)[C@@H](NC(=O)[C@H](CCCCN)NC(=O)[C@H](CCC(=O)O)NC(=O)[C@H](CCCNC(=N)N)NC(=O)CNC(=O)[C@H](CCC(=O)O)NC(=O)[C@H](CC(C)C)NC(C)=O)C(C)C)[C@@H](C)CC)[C@@H](C)O)C(N)=O)C(=O)O)C(=O)O)C(=O)O)C(=O)O` [compound 190] (Ac-LEGREKVRAK(Ac)I[Aib][Aib]EGQSTFS[αMeK]RAK(Ac)[AEEA][AEEA][AEEA][AEEA]K([γGlu-γGlu-γGlu-γGlu-Myristoyl])-NH2): the Emax was 93%.
